Laboratory results from patent publication US20110039721A1, “METHOD FOR PREDICTION ABOUT CARCINOGENICITY OF SUBSTANCE IN RODENT” (Chemicals Evaluation and Research Institute, priority 2007, published 2011).
Read-outs that look alike come from different tables or passages of the source.

Legend:
[1] = test system: mRNA expressed from the genes (A) to (D) in rat liver; assay: Behavior of genes (mRNA expression level, oligo-DNA microarray) in rat liver after 28-day oral administration; assay type: in vivo; conditions: for Behavior of gene caused by administration of chemical substance, Gene No. 4846 / Behavior of gene caused by administration of chemical substance, Gene No. 2026 / Behavior of gene caused by administration of chemical substance, Gene No. 4218 / Behavior of gene caused by administration of chemical substance, Gene No. 6182 / Behavior of gene caused by administration of chemical substance, Gene No. 5600: gene group (A); for Behavior of gene caused by administration of chemical substance, Gene No. 4846: Unigene No. Rn.144554; for Behavior of gene caused by administration of chemical substance, Gene No. 2026 / Behavior of gene caused by administration of chemical substance, Gene No. 4218: Unigene No. Rn.167075; for Behavior of gene caused by administration of chemical substance, Gene No. 6182: Unigene No. Rn.5834; for Behavior of gene caused by administration of chemical substance, Gene No. 5600: Unigene No. Rn.9836; for Behavior of gene caused by administration of chemical substance, Gene No. 1494 / Behavior of gene caused by administration of chemical substance, Gene No. 2045 / Behavior of gene caused by administration of chemical substance, Gene No. 2203: gene group (B); for Behavior of gene caused by administration of chemical substance, Gene No. 1494: Unigene No. Rn.1430; for Behavior of gene caused by administration of chemical substance, Gene No. 2045: Unigene No. Rn.19329; for Behavior of gene caused by administration of chemical substance, Gene No. 2203: Unigene No. Rn.21240; for Behavior of gene caused by administration of chemical substance, Gene No. 533 / Behavior of gene caused by administration of chemical substance, Gene No. 725 / Behavior of gene caused by administration of chemical substance, Gene No. 1163 / Behavior of gene caused by administration of chemical substance, Gene No. 4973 / Behavior of gene caused by administration of chemical substance, Gene No. 4095 / Behavior of gene caused by administration of chemical substance, Gene No. 1334 / Behavior of gene caused by administration of chemical substance, Gene No. 6620 / Behavior of gene caused by administration of chemical substance, Gene No. 6303 / Behavior of gene caused by administration of chemical substance, Gene No. 5878 / Behavior of gene caused by administration of chemical substance, Gene No. 1131 / Behavior of gene caused by administration of chemical substance, Gene No. 1562 / Behavior of gene caused by administration of chemical substance, Gene No. 1741 / Behavior of gene caused by administration of chemical substance, Gene No. 893 / Behavior of gene caused by administration of chemical substance, Gene No. 6026 / Behavior of gene caused by administration of chemical substance, Gene No. 154 / Behavior of gene caused by administration of chemical substance, Gene No. 1993 / Behavior of gene caused by administration of chemical substance, Gene No. 813 / Behavior of gene caused by administration of chemical substance, Gene No. 2494 / Behavior of gene caused by administration of chemical substance, Gene No. 2546 / Behavior of gene caused by administration of chemical substance, Gene No. 3776 / Behavior of gene caused by administration of chemical substance, Gene No. 3929 / Behavior of gene caused by administration of chemical substance, Gene No. 1119 / Behavior of gene caused by administration of chemical substance, Gene No. 6742 / Behavior of gene caused by administration of chemical substance, Gene No. 5634: gene group (C); for Behavior of gene caused by administration of chemical substance, Gene No. 533: Unigene No. Rn.106184; for Behavior of gene caused by administration of chemical substance, Gene No. 725: Unigene No. Rn.108075; for Behavior of gene caused by administration of chemical substance, Gene No. 1163: Unigene No. Rn.11766; for Behavior of gene caused by administration of chemical substance, Gene No. 4973: Unigene No. Rn.118529; for Behavior of gene caused by administration of chemical substance, Gene No. 4095: Unigene No. Rn.119024; for Behavior of gene caused by administration of chemical substance, Gene No. 1334 / Behavior of gene caused by administration of chemical substance, Gene No. 6620: Unigene No. Rn.120914; for Behavior of gene caused by administration of chemical substance, Gene No. 6303: Unigene No. Rn.123063; for Behavior of gene caused by administration of chemical substance, Gene No. 5878: Unigene No. Rn.143213; for Behavior of gene caused by administration of chemical substance, Gene No. 1131: Unigene No. Rn.144946; for Behavior of gene caused by administration of chemical substance, Gene No. 1562: Unigene No. Rn.14744; for Behavior of gene caused by administration of chemical substance, Gene No. 1741: Unigene No. Rn.1647; for Behavior of gene caused by administration of chemical substance, Gene No. 893: Unigene No. Rn.164817; for Behavior of gene caused by administration of chemical substance, Gene No. 6026: Unigene No. Rn.167685; for Behavior of gene caused by administration of chemical substance, Gene No. 154: Unigene No. Rn.185941; for Behavior of gene caused by administration of chemical substance, Gene No. 1993: Unigene No. Rn.18728; for Behavior of gene caused by administration of chemical substance, Gene No. 813: Unigene No. Rn.201760; for Behavior of gene caused by administration of chemical substance, Gene No. 2494: Unigene No. Rn.23969; for Behavior of gene caused by administration of chemical substance, Gene No. 2546: Unigene No. Rn.24561; for Behavior of gene caused by administration of chemical substance, Gene No. 3776: Unigene No. Rn.43232; for Behavior of gene caused by administration of chemical substance, Gene No. 3929: Unigene No. Rn.4620; for Behavior of gene caused by administration of chemical substance, Gene No. 1119: Unigene No. Rn.9757; for Behavior of gene caused by administration of chemical substance, Gene No. 6742: Unigene No. Rn.9779; for Behavior of gene caused by administration of chemical substance, Gene No. 5634: Unigene No. Rn.9862; for Behavior of gene caused by administration of chemical substance, Gene No. 5726: gene group (D), Unigene No. Rn.9939
Outline: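 Liver mRNA levels were compared with matched vehicle groups, with a shift of at least 1.5-fold up or down deemed significant unless its direction disagreed with other carcinogens. Test substances were dosed orally by gavage daily for 28 days to 5-week-old male F344 rats, four per group.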

[2] = test system: liver; conditions: cited from earlier work
[3] = test system: rodent; conditions: classification of the substance (C+/C−); cited from earlier work
[4] = classification of the substance (M+/M−); cited from earlier work
[5] = classification of the substance (Cr+/Cr−)

Row | Structure (SMILES) | Behavior of gene caused by administration of chemical substance, Gene No. 4846 [1] | Behavior of gene caused by administration of chemical substance, Gene No. 2026 [1] | Behavior of gene caused by administration of chemical substance, Gene No. 4218 [1] | Behavior of gene caused by administration of chemical substance, Gene No. 6182 [1] | Behavior of gene caused by administration of chemical substance, Gene No. 5600 [1] | Behavior of gene caused by administration of chemical substance, Gene No. 1494 [1] | Behavior of gene caused by administration of chemical substance, Gene No. 2045 [1] | Behavior of gene caused by administration of chemical substance, Gene No. 2203 [1] | Behavior of gene caused by administration of chemical substance, Gene No. 533 [1] | Behavior of gene caused by administration of chemical substance, Gene No. 725 [1] | Behavior of gene caused by administration of chemical substance, Gene No. 1163 [1] | Behavior of gene caused by administration of chemical substance, Gene No. 4973 [1] | Behavior of gene caused by administration of chemical substance, Gene No. 4095 [1] | Behavior of gene caused by administration of chemical substance, Gene No. 1334 [1] | Behavior of gene caused by administration of chemical substance, Gene No. 6620 [1] | Behavior of gene caused by administration of chemical substance, Gene No. 6303 [1] | Behavior of gene caused by administration of chemical substance, Gene No. 5878 [1] | Behavior of gene caused by administration of chemical substance, Gene No. 1131 [1] | Behavior of gene caused by administration of chemical substance, Gene No. 1562 [1] | Behavior of gene caused by administration of chemical substance, Gene No. 1741 [1] | further results
1 | Nc1ccc([N+](=O)[O-])cc1N [TS035, 4-Nitro-o-phenylenediamine] | − | + | − | − | − | + | − | − | + | + | + | − | − | + | + | + | − | − | − | + | Behavior of gene caused by administration of chemical substance, Gene No. 893 [1]: −; Behavior of gene caused by administration of chemical substance, Gene No. 6026 [1]: −; Behavior of gene caused by administration of chemical substance, Gene No. 154 [1]: −; Behavior of gene caused by administration of chemical substance, Gene No. 1993 [1]: +; Behavior of gene caused by administration of chemical substance, Gene No. 813 [1]: +; Behavior of gene caused by administration of chemical substance, Gene No. 2494 [1]: −; Behavior of gene caused by administration of chemical substance, Gene No. 2546 [1]: +; Behavior of gene caused by administration of chemical substance, Gene No. 3776 [1]: −; Behavior of gene caused by administration of chemical substance, Gene No. 3929 [1]: −; Behavior of gene caused by administration of chemical substance, Gene No. 1119 [1]: −; Behavior of gene caused by administration of chemical substance, Gene No. 6742 [1]: −; Behavior of gene caused by administration of chemical substance, Gene No. 5634 [1]: +; Behavior of gene caused by administration of chemical substance, Gene No. 5726 [1]: −; Liver carcinogenicity ([2]; in vivo): Cr−; Carcinogenicity [3]: C−; Mutagenicity by Ames test [4]: M+
2 | O=c1c(O)c(-c2ccc(O)c(O)c2)oc2cc(O)cc(O)c12 [TS037, Quercetin] | − | − | − | − | − | − | − | − | − | − | − | − | − | − | − | − | − | − | − | − | Behavior of gene caused by administration of chemical substance, Gene No. 893 [1]: −; Behavior of gene caused by administration of chemical substance, Gene No. 6026 [1]: −; Behavior of gene caused by administration of chemical substance, Gene No. 154 [1]: −; Behavior of gene caused by administration of chemical substance, Gene No. 1993 [1]: −; Behavior of gene caused by administration of chemical substance, Gene No. 813 [1]: −; Behavior of gene caused by administration of chemical substance, Gene No. 2494 [1]: −; Behavior of gene caused by administration of chemical substance, Gene No. 2546 [1]: −; Behavior of gene caused by administration of chemical substance, Gene No. 3776 [1]: −; Behavior of gene caused by administration of chemical substance, Gene No. 3929 [1]: −; Behavior of gene caused by administration of chemical substance, Gene No. 1119 [1]: −; Behavior of gene caused by administration of chemical substance, Gene No. 6742 [1]: −; Behavior of gene caused by administration of chemical substance, Gene No. 5634 [1]: −; Behavior of gene caused by administration of chemical substance, Gene No. 5726 [1]: −; Liver carcinogenicity [2, 5]: Cr−; Carcinogenicity [3]: C−; Mutagenicity by Ames test [4]: M+
3 | IC(I)I [TS039, Iodoform] | − | − | − | − | − | + | − | − | − | − | − | − | − | + | + | + | − | − | − | + | Behavior of gene caused by administration of chemical substance, Gene No. 893 [1]: +; Behavior of gene caused by administration of chemical substance, Gene No. 6026 [1]: −; Behavior of gene caused by administration of chemical substance, Gene No. 154 [1]: +; Behavior of gene caused by administration of chemical substance, Gene No. 1993 [1]: −; Behavior of gene caused by administration of chemical substance, Gene No. 813 [1]: −; Behavior of gene caused by administration of chemical substance, Gene No. 2494 [1]: −; Behavior of gene caused by administration of chemical substance, Gene No. 2546 [1]: −; Behavior of gene caused by administration of chemical substance, Gene No. 3776 [1]: −; Behavior of gene caused by administration of chemical substance, Gene No. 3929 [1]: −; Behavior of gene caused by administration of chemical substance, Gene No. 1119 [1]: −; Behavior of gene caused by administration of chemical substance, Gene No. 6742 [1]: +; Behavior of gene caused by administration of chemical substance, Gene No. 5634 [1]: +; Behavior of gene caused by administration of chemical substance, Gene No. 5726 [1]: −; Liver carcinogenicity [2, 5]: Cr−; Carcinogenicity [3]: C−; Mutagenicity by Ames test [4]: M+
